Data reported in US8877683B2, “Substituted pyridines having herbicidal activity” (BASF SE, priority 2010, dated 2014).

Assays:
Assay in all cases: greenhouse post-emergence herbicidal test
Assay type in all cases: in vivo
Settings in all cases: application rate 0.25 kg/ha
[1] = tested on: ALOMY (Alopercurus myosuroides)
Text: (§1) The culture containers used were plastic flowerpots containing loamy sand with approximately 3.0% of humus as the substrate. The seeds of the test plants were sown separately for each species.
(§2) For the post-emergence treatment, the test plants were first grown to a height of 3 to 15 cm, depending on the plant habit, and only then treated with the active ingredients which had been suspended or emulsified in water. For this purpose, the test plants were either sown directly and grown in the same containers, or they were first grown separately as seedlings and transplanted into the test containers a few days prior to treatment.
(§3) Depending on the species, the plants were kept at 10-25° C. or 20-35° C. The test period extended over 2 to 4 weeks. During this time, the plants were tended, and their response to the individual treatments was evaluated.
(§4) Evaluation was carried out using a scale from 0 to 100. 100 means no emergence of the plants, or complete destruction of at least the aerial moieties, and 0 means no damage, or normal course of growth. A good herbicidal activity is given at values of at least 70 and a very good herbicidal activity is given at values of at least 85.
(§5) The herbicidal activity of the substituted pyridine compounds I-2 and I-13 according to this invention was tested in comparison with the corresponding pyrazine compounds Nos. C-11 and C-19 disclosed on page 48 of WO 2010/130970 (not of the invention). These comparative experiments were performed at an application rate of 0.25 kg/ha in a post-emergence treatment by following the same procedure as described above in the Use Examples. The results of Comparative Examples 1 and 2 are indicated below in Tables II and III.

[2] = tested on: BRSNW (Brassica napus (winter))
Text: as §1, §2, §3, §4, §5

[3] = tested on: CHEAL (Chenopodium album)
Text: as §1, §2, §3, §4, §5

[4] = tested on: ECHCG (Echinocloa crus-galli)
Text: as §1, §2, §3, §4, §5

AVEFA (Avena fatua) = tested on: AVEFA (Avena fatua)
Text: as §1, §2, §3, §4, §5

Compound | herbicidal activity against ALOMY [1] | herbicidal activity against BRSNW [2] | herbicidal activity against CHEAL [3] | herbicidal activity against ECHGG [4] | herbicidal activity against AVEFA (AVEFA (Avena fatua))
CC(C)(C)C(=O)OC1=C(c2ccccc2C(F)(F)F)S(=O)(=O)Cc2cccnc21 [I-8, 2,2-Dimethyl-propionic acid 6,6-dioxo-7-(2-trifluoromethyl-phenyl)-5,6-dihydro-thiopyrano[4,3-b]pyridin-8-yl ester] | good (A good herbicidal activity is given at values of at least 70) | – | – | – | –
O=S1(=O)Cc2nccnc2C(O)=C1c1c(Cl)cccc1Cl [reference compound] | – | good (A good herbicidal activity is given at values of at least 70) | less than good | less than good | –
O=S1(=O)Cc2cccnc2C(O)=C1c1c(Cl)cccc1Cl [I-13] | – | very good (a very good herbicidal activity is given at values of at least 85) | very good (a very good herbicidal activity is given at values of at least 85) | very good (a very good herbicidal activity is given at values of at least 85) | –
O=S1(=O)Cc2cccnc2C(O)=C1c1ccccc1C(F)(F)F [I-2, 6,6-Dioxo-7-(2-trifluoromethyl-phenyl)-5,6-dihydro-thiopyrano[4,3-b]pyridin-8-ol] | very good (a very good herbicidal activity is given at values of at least 85) | – | – | very good (a very good herbicidal activity is given at values of at least 85) | very good (a very good herbicidal activity is given at values of at least 85)
O=S1(=O)Cc2nccnc2C(O)=C1c1ccccc1C(F)(F)F [reference compound] | good (A good herbicidal activity is given at values of at least 70) | – | – | less than good | less than good
